Measured values taken from the Kinase Knowledgebase extract (Sharma et al. 2016).

Biological target: MAPK14 (human) (UniProt Q16539)
Assay: Inhibition of MAPK14 Kinase Activity

Chain of MAPK14 (human) (Q16539 whole entry, looked up): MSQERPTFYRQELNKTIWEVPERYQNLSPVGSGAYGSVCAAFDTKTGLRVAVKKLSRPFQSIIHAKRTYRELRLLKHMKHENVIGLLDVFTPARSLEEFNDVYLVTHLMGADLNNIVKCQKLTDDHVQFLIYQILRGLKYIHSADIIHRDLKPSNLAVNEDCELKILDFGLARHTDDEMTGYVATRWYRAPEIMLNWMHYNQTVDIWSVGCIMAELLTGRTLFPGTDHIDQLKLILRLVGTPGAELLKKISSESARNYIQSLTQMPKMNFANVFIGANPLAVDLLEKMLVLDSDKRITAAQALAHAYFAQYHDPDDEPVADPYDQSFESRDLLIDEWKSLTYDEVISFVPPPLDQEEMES

IC50, ≤ 10 µM:
CS(=O)(=O)Nc1ccc(F)c(C(=O)c2c[nH]c3ncc(-c4cccc(C(N)=O)c4)cc23)c1
CC(=O)Nc1cccc(-c2cnc3[nH]cc(C(=O)c4ccccc4F)c3c2)c1
O=C(c1ccccc1F)c1c[nH]c2ncc(-c3ccsc3)cc12
NC(=O)c1ccc(-c2cnc3[nH]cc(C(=O)c4cccc(O)c4)c3c2)cc1
O=C(c1cc(O)ccc1F)c1c[nH]c2ncc(-c3cccs3)cc12
O=C(c1cccc(O)c1)c1c[nH]c2ncc(Br)cc12
Oc1ccc(F)c(Cc2c[nH]c3ncc(Br)cc23)c1F
O=C(Nc1ccc(Cc2c[nH]c3ncccc23)cc1)Nc1ccc(Cl)c(C(F)(F)F)c1
O=C(O)C=Cc1cccc(-c2cnc3[nH]cc(C(=O)c4cc(O)ccc4F)c3c2)c1
O=C(c1ccccc1F)c1c[nH]c2ncccc12
Brc1ccc(C=Cc2c[nH]c3ncccc23)cc1
CCS(=O)(=O)Nc1ccc(F)c(C(=O)c2c[nH]c3ncc(-c4cccnc4)cc23)c1F
Cn1cc(C(F)(F)F)c(-c2ccc(S(=O)(=O)NCc3c[nH]c4ncccc34)s2)n1
CS(=O)(=O)Nc1cccc(-c2cnc3[nH]cc(C(=O)c4c(Cl)ccc(NS(C)(=O)=O)c4F)c3c2)c1
COc1cccc(CCc2c[nH]c3ncc(-c4ccsc4)cc23)c1
Cc1cccc(N(C)c2ccnc3[nH]ccc23)c1
Nc1cccc(-c2cnc3[nH]cc(C(=O)c4ccccc4F)c3c2)c1
Cc1c(O)cccc1C(=O)c1c[nH]c2ncc(-c3cccs3)cc12
O=S(=O)(NCc1c[nH]c2ncccc12)c1ccc(N2CCOCC2)nc1
CS(=O)(=O)Nc1ccc(Cl)c(C(=O)c2c[nH]c3ncc(-c4cccnc4)cc23)c1F
CC(=O)Nc1cccc(-c2cnc3[nH]cc(C(=O)c4cccc(O)c4F)c3c2)c1
CS(=O)(=O)Nc1ccc(F)c(C(=O)c2c[nH]c3ncc(-c4ccccc4)cc23)c1
CCCNC(=O)Nc1ccc(F)c(C(=O)c2c[nH]c3ncc(-c4cccnc4)cc23)c1F
O=C(c1c(F)ccc(O)c1F)c1c[nH]c2ncc(-c3cccnc3)cc12
COc1ccc(F)c(C(=O)c2c[nH]c3ncc(-c4cccnc4)cc23)c1
COc1cc(O)cc(Cc2c[nH]c3ncc(-c4ccsc4)cc23)c1
COc1cccc(C(=O)c2c[nH]c3ncc(-c4cccnc4)cc23)c1
Nc1cccc(-c2cnc3[nH]cc(C(=O)c4cccc(Cl)c4Cl)c3c2)c1
Fc1ccc(/C=C/c2ccnc3[nH]ccc23)cc1
CCCS(=O)(=O)Nc1ccc(Cl)c(C(=O)c2c[nH]c3ncc(-c4ccccc4)cc23)c1F
O=C(c1cccc(O)c1F)c1c[nH]c2ncc(-c3cccnc3)cc12
CS(=O)(=O)Nc1ccc(Cl)c(C(=O)c2c[nH]c3ncc(Br)cc23)c1F
Cc1ccc(S(=O)(=O)NCc2c[nH]c3ncccc23)cc1
CS(=O)(=O)c1cccc(-c2cnc3[nH]cc(C(=O)c4cccc(O)c4F)c3c2)c1
Cc1ccccc1C(=O)c1c[nH]c2ncc(-c3cccc(N)c3)cc12
COc1cccc(C(=O)c2c[nH]c3ncc(-c4cccc(N)c4)cc23)c1
COC(=O)Nc1ccc(F)c(Cc2c[nH]c3ncc(-c4cccnc4)cc23)c1F
O=C(c1c(F)ccc(NCc2ccccc2)c1F)c1c[nH]c2ncc(-c3cccnc3)cc12
O=C(c1cc(O)ccc1F)c1c[nH]c2ncc(Br)cc12
O=C(c1ccccc1F)c1c[nH]c2ncc(-c3ccccn3)cc12
COc1cccc(C(=O)c2c[nH]c3ncc(-c4cccc(C(N)=O)c4)cc23)c1
Oc1cccc(Cc2c[nH]c3ncc(-c4ccsc4)cc23)c1
O=C(c1cc(O)ccc1F)c1c[nH]c2ncc(-c3ccccc3)cc12
CCc1cnc2[nH]cc(C(=O)c3cccc(OC)c3)c2c1
CCCS(=O)(=O)Nc1ccc(F)c(C(=O)c2c[nH]c3ncc(-c4ccccc4)cc23)c1F
CS(=O)(=O)Nc1cccc(-c2cnc3[nH]cc(C(=O)c4cccc(O)c4F)c3c2)c1
CS(=O)(=O)Nc1cccc(-c2cnc3[nH]cc(C(=O)c4cc(NS(C)(=O)=O)ccc4F)c3c2)c1
O=C(c1cccc(F)c1F)c1c[nH]c2nccc(-c3cc(F)cc(F)c3)c12
CS(=O)(=O)Nc1ccc(F)c(C(=O)c2c[nH]c3ncc(Br)cc23)c1
CCCS(=O)(=O)Nc1ccc(Cl)c(C(=O)c2c[nH]c3ncc(-c4cccnc4)cc23)c1F
CS(=O)(=O)Nc1cccc(-c2cnc3[nH]cc(C(=O)c4cc(O)ccc4F)c3c2)c1
c1cc(Nc2ccc3ncsc3c2)c2cc[nH]c2n1
O=C(c1cccc(O)c1F)c1c[nH]c2ncc(-c3cncnc3)cc12
CCCS(=O)(=O)Nc1ccc(F)c(C(=O)c2c[nH]c3ncc(Br)cc23)c1F
O=C(c1cc(O)ccc1F)c1c[nH]c2ncc(-c3ccsc3)cc12
Cc1nc(-c2ccnc3[nH]ccc23)no1
O=C(Nc1ccc(Cc2c[nH]c3ncccc23)cc1)Nc1cccc(C(F)(F)F)c1
O=C(c1cccc(O)c1)c1c[nH]c2ncc(-c3cccs3)cc12
O=C(c1c(F)ccc(NS(=O)(=O)c2ccccc2)c1F)c1c[nH]c2ncc(Br)cc12
CS(=O)(=O)c1cccc(-c2cnc3[nH]cc(C(=O)c4cc(O)ccc4F)c3c2)c1
NC(=O)c1ccc(-c2cnc3[nH]cc(C(=O)c4ccccc4F)c3c2)cc1
O=C(c1c(F)ccc(NS(=O)(=O)c2ccccc2)c1F)c1c[nH]c2ncc(-c3cccnc3)cc12
CCCS(=O)(=O)Nc1ccc(F)c(C(=O)c2c[nH]c3ncc(-c4cccnc4)cc23)c1F
O=S(=O)(NCc1c[nH]c2ncccc12)c1cc(Cl)c(Cl)s1
NC(=O)c1cccc(-c2cnc3[nH]cc(C(=O)c4cccc(O)c4F)c3c2)c1
O=C(c1cccc(O)c1)c1c[nH]c2ncc(-c3ccsc3)cc12
O=C(c1cc(O)ccc1F)c1c[nH]c2ncccc12
O=C(c1ccc(O)cc1Cl)c1c[nH]c2ncc(-c3cccs3)cc12
O=C(c1cc(O)ccc1F)c1c[nH]c2ncc(-c3cccnc3)cc12
Cc1c(NS(C)(=O)=O)cccc1C(=O)c1c[nH]c2ncc(-c3ccccc3)cc12
c1cnc2ccc(Nc3ccnc4[nH]ccc34)cc2c1
CS(=O)(=O)Nc1ccc(F)c(C(=O)c2c[nH]c3ncc(-c4cccnc4)cc23)c1
CCCS(=O)(=O)Nc1ccc(F)c(C(=O)c2c[nH]c3ncc(Cl)cc23)c1F
CS(=O)(=O)Nc1ccc(F)c(C(=O)c2c[nH]c3ncc(-c4cccc(S(C)(=O)=O)c4)cc23)c1
O=C(c1cccc(Cl)c1Cl)c1c[nH]c2ncc(-c3cccnc3)cc12
CS(=O)(=O)Nc1ccc(Cl)c(C(=O)c2c[nH]c3ncc(-c4cccc(S(C)(=O)=O)c4)cc23)c1F
Cc1ccc(F)cc1C(=O)c1c[nH]c2ncc(-c3ccsc3)cc12
COc1cccc(C(=O)c2c[nH]c3ncc(-c4cccs4)cc23)c1
O=C(c1cccc(NCc2ccccc2)c1)c1c[nH]c2ncccc12
O=C(c1ccccc1O)c1c[nH]c2ncc(-c3cccs3)cc12
Cc1ccccc1C(=O)c1c[nH]c2ncc(-c3ccsc3)cc12
Cc1ccc(F)cc1C(=O)c1c[nH]c2ncc(-c3ccc(C(N)=O)cc3)cc12
CCc1cnc2[nH]cc(C(=O)c3cccc(O)c3)c2c1
O=C(c1cccc(O)c1F)c1c[nH]c2ncc(-c3ccccc3)cc12
O=C(c1cc(F)ccc1F)c1c[nH]c2ncc(-c3ccsc3)cc12
Clc1ccc(Nc2ccnc3[nH]ccc23)cc1Cl
CS(=O)(=O)Nc1ccc(F)c(C(=O)c2c[nH]c3ncc(-c4cccnc4)cc23)c1F
O=C(Nc1ccc(F)c(C(=O)c2c[nH]c3ncc(-c4cccnc4)cc23)c1F)OCc1ccccc1
Cc1ccc(F)cc1C(=O)c1c[nH]c2ncc(-c3cccc(NS(C)(=O)=O)c3)cc12
Nc1cccc(-c2cnc3[nH]cc(C(=O)c4ccc(Cl)cc4)c3c2)c1
Nc1cccc(-c2cnc3[nH]cc(C(=O)c4ccc5nsnc5c4)c3c2)c1
CS(=O)(=O)Nc1ccc(F)c(C(=O)c2c[nH]c3ncc(-c4cccc(S(C)(=O)=O)c4)cc23)c1F
Cc1c(O)cccc1C(=O)c1c[nH]c2ncc(-c3ccccc3)cc12
